target: T1, CRTH2 (Homo sapiens, UniProt Q9Y5Y4); assay: FRET based competitive immunoassay (cAMP) in CRTH2 expressing CHO cells; type: cell-based; settings: CRTH2 expressing CHO cells incubated with forskolin and PGD2; Eu3+ cryptate-labeled anti-cAMP and d2-labeled cAMP
T1 construct: expressed in transfected cells; host or cells: CHO cells
T1 sequence (Q9Y5Y4 1-395): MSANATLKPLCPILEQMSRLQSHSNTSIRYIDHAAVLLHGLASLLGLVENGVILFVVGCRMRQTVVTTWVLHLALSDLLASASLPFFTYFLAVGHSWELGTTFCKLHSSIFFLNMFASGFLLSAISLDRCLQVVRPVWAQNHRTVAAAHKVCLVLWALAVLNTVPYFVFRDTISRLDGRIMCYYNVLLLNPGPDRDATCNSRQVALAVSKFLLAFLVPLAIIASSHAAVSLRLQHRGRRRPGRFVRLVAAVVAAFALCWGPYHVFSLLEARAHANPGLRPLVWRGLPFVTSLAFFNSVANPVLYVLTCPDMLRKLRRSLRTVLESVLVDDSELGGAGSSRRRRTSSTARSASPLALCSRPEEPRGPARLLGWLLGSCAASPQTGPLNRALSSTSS
Experimental: FRET Assay: To evaluate potency compounds were tested in a FRET based competitive immunoassay in which CRTH2 expressing CHO cells were incubated in the presence of forskolin and PGD2 along with Eu3+ cryptate-labeled anti-cAMP and d2-labeled cAMP.

Structure (SMILES)	IC50 [nM]
COc1ccc(C(=O)n2c(C)c(-c3ccc(=O)n(Cc4ccccc4)n3)c3cc(F)ccc32)cc1 [Example 262a, 2-benzyl-6-(5-fluoro-1-(4-methoxybenzoyl)-2-methyl-1H-indol-3-yl)-pyridazin-3(2H)-one]	> 10000
Cc1c(-c2ccc(=O)n(Cc3ccccc3)n2)c2cc(F)ccc2n1C(=O)c1cccnc1 [Example 262b, 2-benzyl-6-(5-fluoro-2-methyl-1-nicotinoyl-1H-indol-3-yl)pyridazin-3(2H)-one]	> 10000
Cc1c(-c2ccc(=O)n(Cc3ccccc3)n2)c2cc(F)ccc2n1Cc1ccccc1 [Example 262c, 6-(1-benzyl-5-fluoro-2-methyl-1H-indol-3-yl)-2-benzylpyridazin-3(2H)-one]	> 10000
Cc1c(-c2ccc(=O)n(Cc3ccccc3)c2)c2ccccc2n1CC(=O)O [Example 263, 2-(3-(1-benzyl-6-oxo-1,6-dihydropyridin-3-yl)-2-methyl-1H-indol-1-yl)acetic acid]	42
Cc1c(-c2ccc(=O)n(Cc3ccccc3)c2)c2cc(Cl)ccc2n1CC(=O)O [Example 264, 2-(3-(1-benzyl-6-oxo-1,6-dihydropyridin-3-yl)-5-chloro-2-methyl-1H-indol-1-yl)acetic acid]	10
Cc1c(-c2ccc(=O)n(Cc3ccccc3)c2)c2cc(F)ccc2n1CC(=O)O [Example 265, 2-(3-(1-benzyl-6-oxo-1,6-dihydropyridin-3-yl)-5-fluoro-2-methyl-1H-indol-1-yl)acetic acid]	5
Cc1c(-c2ccc(=O)n(Cc3ccccc3F)c2)c2cc(F)ccc2n1CC(=O)O [Example 266, 2-(5-fluoro-3-(1-(2-fluorobenzyl)-6-oxo-1,6-dihydropyridin-3-yl)-2-methyl-1H-indol-1-yl)acetic acid]	9
Cc1c(-c2ccc(=O)n(Cc3ccc(F)cc3)c2)c2cc(F)ccc2n1CC(=O)O [Example 267, 2-(5-fluoro-3-(1-(4-fluorobenzyl)-6-oxo-1,6-dihydropyridin-3-yl)-2-methyl-1H-indol-1-yl)acetic acid]	6
Cc1c(-c2ccc(=O)n(Cc3c(F)cccc3F)c2)c2cc(F)ccc2n1CC(=O)O [Example 268, 2-(3-(1-(2,6-difluorobenzyl)-6-oxo-1,6-dihydropyridin-3-yl)-5-fluoro-2-methyl-1H-indol-1-yl)acetic acid]	7
Cc1c(-c2ccc(=O)n(Cc3cccc(F)c3F)c2)c2cc(F)ccc2n1CC(=O)O [Example 269, 2-(3-(1-(2,3-difluorobenzyl)-6-oxo-1,6-dihydropyridin-3-yl)-5-fluoro-2-methyl-1H-indol-1-yl)acetic acid]	1
Cc1c(-c2nn(Cc3nnc[nH]3)c(=O)c3ccccc23)c2cc(F)ccc2n1CC(=O)O [Example 270, 2-(3-(3-((4H-1,2,4-triazol-3-yl)methyl)-4-oxo-3,4-dihydrophthalazin-1-yl)-5-fluoro-2-methyl-1H-indol-1-yl)acetic acid]	> 5500
Cc1c(-c2ccc(=O)n(Cc3cc(F)c(F)cc3F)c2)c2cc(F)ccc2n1CC(=O)O [Example 271, 2-(5-Fluoro-2-methyl-3-(6-oxo-1-(2,4,5-trifluorobenzyl)-1,6-dihydropyridin-3-yl)-1H-indol-1-yl)acetic acid]	12
Cc1c(-c2cn(CCC(C)(C)O)c(=O)c3ccccc23)c2cc(F)ccc2n1CC(=O)O [Example 272, 2-(5-fluoro-3-(2-(3-hydroxy-3-methylbutyl)-1-oxo-1,2-dihydroisoquinolin-4-yl)-2-methyl-1H-indol-1-yl)acetic acid]	23
Cc1c(-c2ccc(=O)n(Cc3ccc(F)cc3F)c2)c2cc(F)ccc2n1CC(=O)O [Example 273, 2-(3-(1-(2,4-difluorobenzyl)-6-oxo-1,6-dihydropyridin-3-yl)-5-fluoro-2-methyl-1H-indol-1-yl)acetic acid]	28
Cc1c(-c2ccc(=O)n(Cc3ccc(F)cc3F)c2)c2cc(Cl)ccc2n1CC(=O)O [Example 274, 2-(5-chloro-3-(1-(2,4-difluorobenzyl)-6-oxo-1,6-dihydropyridin-3-yl)-2-methyl-1H-indol-1-yl)acetic acid]	3
Cc1c(-c2ccc(=O)n(Cc3ccc(F)cc3F)c2)c2ccccc2n1CC(=O)O [Example 275, 2-(3-(1-(2,4-difluorobenzyl)-6-oxo-1,6-dihydropyridin-3-yl)-2-methyl-1H-indol-1-yl)acetic acid]	30
Cc1c(-c2ccc(=O)n(C(C)C)c2)c2ccccc2n1CC(=O)O [Example 276, 2-(3-(1-isopropyl-6-oxo-1,6-dihydropyridin-3-yl)-2-methyl-1H-indol-1-yl)-acetic acid]	577
Cc1c(-c2ccc(OC(C)C)nc2)c2cc(F)ccc2n1CC(=O)O [Example 277]	71
Cc1c(-c2ccc(=O)n(C(C)C)c2)c2cc(Cl)ccc2n1CC(=O)O [Example 278, 2-(5-chloro-3-(1-isopropyl-6-oxo-1,6-dihydropyridin-3-yl)-2-methyl-1H-indol-1-yl)acetic acid]	198
Cc1c(-c2ccc(=O)n(CC(F)(F)F)c2)c2ccccc2n1CC(=O)O [Example 279, 2-(2-methyl-3-(6-oxo-1-(2,2,2-trifluoroethyl)-1,6-dihydropyridin-3-yl)-1H-indol-1-yl)acetic acid]	715
Cc1c(-c2ccc(=O)n(CC(F)(F)F)c2)c2cc(F)ccc2n1CC(=O)O [Example 280, 2-(5-Fluoro-2-methyl-3-(6-oxo-1-(2,2,2-trifluoroethyl)-1,6-dihydropyridin-3-yl)-1H-indol-1-yl)acetic acid]	117
Cc1c(-c2ccc(=O)n(CC(F)(F)F)c2)c2cc(Cl)ccc2n1CC(=O)O [Example 281, 2-(5-chloro-2-methyl-3-(6-oxo-1-(2,2,2-trifluoroethyl)-1,6-dihydropyridin-3-yl)-1H-indol-1-yl)acetic acid]	240
Cc1c(-c2ccc(=O)n(Cc3ccccc3F)c2)c2ccccc2n1CC(=O)O [Example 282, 2-(3-(1-(2-fluorobenzyl)-6-oxo-1,6-dihydropyridin-3-yl)-2-methyl-1H-indol-1-yl)acetic acid]	11
Cc1c(-c2ccc(=O)n(Cc3ccc(F)cc3)c2)c2ccccc2n1CC(=O)O [Example 283, 2-(3-(1-(4-fluorobenzyl)-6-oxo-1,6-dihydropyridin-3-yl)-2-methyl-1H-indol-1-yl)acetic acid]	16
Cc1c(-c2ccc(=O)n(Cc3cccc(F)c3F)c2)c2ccccc2n1CC(=O)O [Example 284, 2-(3-(1-(2,3-difluorobenzyl)-6-oxo-1,6-dihydropyridin-3-yl)-2-methyl-1H-indol-1-yl)acetic acid]	15
Cc1c(-c2ccc(=O)n(Cc3c(F)cccc3F)c2)c2ccccc2n1CC(=O)O [Example 285, 2-(3-(1-(2,6-difluorobenzyl)-6-oxo-1,6-dihydropyridin-3-yl)-2-methyl-1H-indol-1-yl)acetic acid]	23
Cc1c(-c2ccc(=O)n(Cc3cc(F)c(F)cc3F)c2)c2ccccc2n1CC(=O)O [Example 286, 2-(2-methyl-3-(6-oxo-1-(2,4,5-trifluorobenzyl)-1,6-dihydropyridin-3-yl)-1H-indol-1-yl)acetic acid]	11
Cc1c(-c2ccc(=O)n(CC(C)C)c2)c2ccccc2n1CC(=O)O [Example 287, 2-(3-(1-isobutyl-6-oxo-1,6-dihydropyridin-3-yl)-2-methyl-1H-indol-1-yl)-acetic acid]	305

From patent publication US20110105509A1 (Wyeth, LLC, priority 2009, published 2011)
